In PMC11187542, “Identification of fragments targeting SMYD3 using highly sensitive kinetic and multiplexed biosensor-based screening” (RSC Medicinal Chemistry, 2024):

Experiments:
SMYD3 [1] = target: T1, SMYD3 (Homo sapiens, UniProt Q9H7B4); assay: X-ray crystallography of SMYD3-fragment complexes (co-crystallization and soaking); design: key to XRC: success or failure of crystallization in complex with SMYD3: The success (+) or failure (−) of crystallization in complex with SMYD3; The success (+) or failure (−) of crystallization in complex with SMYD3; conditions: 5 mM fragment co-crystallization or soaking
T1 construct: Full length recombinant SMYD3 was produced as previously reported; made in house; host or cells: E. coli BL21(DE3), in some cases Rosetta 2
T1 sequence (Q9H7B4 1-428): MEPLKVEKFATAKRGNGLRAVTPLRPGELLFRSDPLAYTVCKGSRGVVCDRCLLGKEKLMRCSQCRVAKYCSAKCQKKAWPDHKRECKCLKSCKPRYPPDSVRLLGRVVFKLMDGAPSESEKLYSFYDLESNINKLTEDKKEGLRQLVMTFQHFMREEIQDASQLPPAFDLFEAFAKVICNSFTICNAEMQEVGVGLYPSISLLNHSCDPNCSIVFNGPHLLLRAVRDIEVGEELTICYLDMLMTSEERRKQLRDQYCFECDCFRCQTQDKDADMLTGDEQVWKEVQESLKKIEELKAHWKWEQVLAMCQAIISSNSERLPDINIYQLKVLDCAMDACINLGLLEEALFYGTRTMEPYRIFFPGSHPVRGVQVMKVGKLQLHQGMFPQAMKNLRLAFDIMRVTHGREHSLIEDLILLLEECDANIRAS
Description: To identify binding sites and binding modes, the fragment hits (Table 1) were used in both co-crystallization and soaking experiments to obtain SMYD3-fragment co-crystals for X-ray crystallographic analyses. Diffraction data of 1.6–1.9 Å maximum resolution were obtained for four fragments (Fig. 5). For data collection and refinement statistics, see ESI, ^† Table S1.
Four new sites were thus identified.
Polder (F0–Fc) maps (Fig. 5, right) were generated to establish whether the observed electron density features were more likely to represent background noise or to belong to bound fragments. These omit maps are generated upon exclusion of the ligand and surrounding solvent from the model, which aids in visualizing weak densities. […] For fragments FL01507, FL08580 and FL08619, a comparison of the maps obtained after refinement with a bound fragment with maps obtained upon their replacement with either glycerol or acetate, which were present in the crystallization or cryo-protectant solutions, respectively, was required.
8 mg mL^−1 of SMYD3 in storage buffer (TBS buffer containing 2 mM DTT) was pre-incubated for 4–8 hours with 5 mM of a respective fragment hit compound and 10% (v/v) DMSO. Subsequently, 1 μL of this solution was mixed with an equal volume of reservoir solution (100 mM Tris, 100 mM magnesium acetate, 15–17% PEG3350, pH 8.25–8.75) to create the drops for co-crystallization by hanging drop vapour diffusion performed at 20 °C. Needle-like co-crystals nucleated within 12 h of equilibration against the reservoir. In addition, crystals of SMYD3 obtained in ligand-free crystallization setups were soaked with fragment solution prior to freezing. All crystals were cryo-protected via brief immersion in reservoir solution supplemented with 10% (v/v) glycerol.
Diffraction data were collected at beamline ID23-1 of the European Synchrotron Radiation Facility (ESRF, Grenoble, France). Data were indexed, auto-processed, scaled and merged on-site using the implemented data processing routines and software. Fragment-associated electron density features were identified upon data analysis with the Pipedream system (version 1.4.0, Global Phasing Ltd, Cambridge, United Kingdom), which includes data processing with autoPROC,[14] molecular replacement with Phaser,[15] structure refinement with BUSTER version 2.10.4 (Global Phasing Ltd, Cambridge, United Kingdom), automated ligand fitting with Rhofit (Global Phasing Ltd, Cambridge, United Kingdom) and BUSTER post-refinement.[16] Refinement was done with Phenix,[17] and model building with Coot.[18] (F0–Fc) difference density maps for models, from which ligand atoms and surrounding water molecules were removed, were generated using Phenix.

SMYD3 [2] = target: T1, SMYD3; assay: GCI biosensor multi cycle kinetic confirmation of hits; format: binding; conditions: two-fold serial dilution starting at 250 μM, 15 °C, global fit 1:1 model
Procedure: Selected screening hits were also re-tested by conventional multi cycle kinetic analysis in order to confirm the interactions (some compounds were no longer available). Two variants of the GCI biosensor assay were set up, using different immobilisation levels, to allow the confirmation of hits over a broad range of affinities. […] The kinetics varied for the selected hits (ESI, ^† Fig. S2). All hits were not confirmed (ESI, ^† Fig. S1b).
(§1) All interaction kinetic experiments were conducted with a GCI–flow-based biosensor (WAVEdelta, Creoptix AG/Malvern Panalytical) and PCH WAVEchip (Creoptix AG/Malvern Panalytical) sensor chips. The sensor chips were conditioned using injections of borate buffer (10 mM sodium tetraborate pH 8.5, 1 M NaCl). The running buffer composition, if not otherwise stated, was TBS buffer (50 mM Tris, 150 mM NaCl, 0.5 mM TCEP, 0.05% Tween 20, 1% DMSO, pH 8). SMYD3 was diluted to the desired concentration in 10 mM bis-Tris (pH 7.0) and amine coupled to the sensor surface of the PCH sensor chip. The sensor chip was functionalized at 25 °C by immobilising SMYD3 with EDC and NHS (Xantec) using an injection time of 420 s and a flow rate of 10 μL min^−1. The immobilisation levels ranged from 5000 pg mm^−2 to 18 500 pg mm^−2 surface mass to enable analysis of fragments spanning a broad range of affinities. After immobilization, the surface was deactivated with a running buffer containing 50 mM Tris for 420 s. The GCI data referencing and analysis were performed using WAVEcontrol V4.5 (Creoptix AG).
(§2) Kinetic measurements with controls and fragments were performed at 15 °C. Analysis of controls and follow up of hits was done using the multi cycle kinetic (MCK) injection of a concentration series for the same time, with a two-fold serial dilution starting at 250 μM for each compound. Solvent correction was performed ranging from 0.5–1.8% DMSO. Blank samples of the running buffer, 1× TBS (50 mM Tris, 150 mM NaCl, 0.5 mM TCEP, 0.05% Tween 20, 1% DMSO, pH 8), were injected during the measurements every fifth cycle. The experimental design illustrated in Fig. 1 was used for the screening against all four surfaces. The sensorgrams were adjusted to account for solvent correction and blank subtraction. Kinetic fitting was performed with the Direct Kinetics engine of WAVEcontrol software V4.5 (Creoptix AG) with a suitable fitting model.
FL06268 Superstoichiometric and
Figure 1. Examples of sensorgrams from multicycle kinetic experiments with initial fragment hits and SMYD3. A)
Fragments for which crystal structures of the complex with SMYD3 were obtained. A global fit of the sensorgrams
crystal structures were not obtained. […]

[3] = target: T2, SMYD3 in complex with active site-specific tight-binding inhibitor EPZ031686 (Homo sapiens, UniProt Q9H7B4); assay: GCI biosensor kinetic screening, active site blocked SMYD3 surface
T2 construct: Full length recombinant SMYD3 was produced as previously reported; made in house; host or cells: E. coli BL21(DE3), in some cases Rosetta 2
T2 sequence (Q9H7B4 1-428): T1 sequence (Q9H7B4 1-428)
Description: (§3) A multiplexed screening assay was set up with three different SMYD3 surfaces and a blank reference surface in flow channels 1–4 (FC1–FC4) (Fig. 2a), as described previously.[5] The apo SMYD3 surface detected fragments interacting anywhere on SMYD3, while a SMYD3 surface blocked by active site-specific tight-binding inhibitor EPZ031686 detected compounds binding elsewhere. The denatured surface served as a reference, detecting fragments binding to unfolded proteins, also potentially present to a significant degree in the other two surfaces.
(§4) The library was screened using the approach described in Fig. 1, i.e. injection of fragments at 250 μM for increasing durations of time in a single cycle, using a flow rate of 100 μL min^−1, data acquisition set to 40 Hz and with an association time of 5 s and dissociation of 20 s. Each fragment was addressed to all four channels and interactions with the native and blocked surfaces compared. The experimental conditions were chosen to ensure that the assay could reliably characterize the fast and transient interactions expected from typical fragments.
(§5) The kinetic screening of 1056 compounds was successfully completed in 72 hours. […] Hits were identified with full kinetic information using dissociation phases.
as §1, §2

SMYD3 [4] = target: T1, SMYD3; design: method as in PMID 31389685; conditions: previously obtained, SPR-based biosensor assay, cited from earlier work
SMYD3 (apo, native) = target: T3, SMYD3 (apo, native) (Homo sapiens, UniProt Q9H7B4); assay: GCI biosensor kinetic screening, apo SMYD3 surface; format: binding; conditions: control SAH at 25 μM, multiple injection design
T3 construct: Full length recombinant SMYD3 was produced as previously reported; made in house; host or cells: E. coli BL21(DE3), in some cases Rosetta 2
T3 sequence (Q9H7B4 1-428): T1 sequence (Q9H7B4 1-428)
Description: as §3
After preparing the sensor surface and immobilising SMYD3, the functionality of the surface was assessed via analysis of interactions with the co-factor product S-adenosyl-homocysteine (SAH). It was used as a control in all experiments, confirming that sensor surfaces were intact. This was done using the novel multiple injection-based experimental design (Fig. 1) at 25 μM, i.e. in a weak binder mode (Fig. 2b).
as §4, §5, §1, §2

| XRC: success or failure of crystallization in complex with SMYD3 (SMYD3 [1]) | Outcome of multicycle kinetic experiment (sensorgram assessment) (SMYD3 [2]) | LE (ligand efficiency) ([3]; LE = −RT ln(KD)/n, blocked SMYD3 surface) | Kd ([3]; initial kinetic screening, fragment 250 μM, 15 °C, SMYD3 blocked by EPZ031686) | kd ([3]; initial kinetic screening, fragment 250 μM, 15 °C, SMYD3 blocked by EPZ031686, 1:1 model) | kon at 250 µM ([3]; initial kinetic screening, fragment 250 μM, 15 °C, SMYD3 blocked by EPZ031686, 1:1 model, read-out: ka) | Structure (SMILES) | ka (SMYD3 [4]) | kd (SMYD3 [4]) | Kd (SMYD3 [4]; read-out: derived KD) | ka (SMYD3 (apo, native)) | kd (SMYD3 (apo, native)) |
| --- | --- | --- | --- | --- | --- | --- | --- | --- | --- | --- | --- |
| (+) | Far from saturation | 0.55 (kcal^-1 mol^-1)/HA | 38 µM | 1.06 s⁻¹ | 27300 M⁻¹ s⁻¹ | O=C(O)C(=O)c1ccccc1 [FL08619] | – | – | – | – | – |
| – | – | – | – | – | – | Nc1ncnc2c1ncn2[C@@H]1O[C@H](CSCC[C@H](N)C(=O)O)[C@@H](O)[C@H]1O [SAH, S-adenosyl-homocysteine] | (2.7 ± 0.1) × 10^6 M^-1 s^-1 | 1.6 ± 0.9 s⁻¹ | 0.611 ± 0.002 µM | 304000 to 3.52e+06 M⁻¹ s⁻¹ | 0.748 to 4.92 s⁻¹ |
